Data from patent US20250270180A1, “MEK INHIBITORS AND THERAPEUTIC USES THEREOF” (Immuneering Corporation, priority 2020, published 2025).

Each molecule was assayed on A549 pERK (assay: A549-pERK, 2 h (quantitative Western, Jess)). Conditions: Homo sapiens, A549, 10 nM, phospho:total ratio normalized to DMSO control.
Type: cell-based
Description: A549 or […] cells were treated in duplicate for two hours with compounds at varying concentrations. After two hours, the cells were lysed, snap frozen, and stored at −80° C. After storage, the lysate was quantified with the Bradford assay. Before the lysates were prepared to run on the Jess, the lysates were diluted to 1 mg/mL for pERK analysis and 1.5 mg/mL pMEK analysis using quantitative Western blotting. ERK and MEK phosphorylation levels were estimated by taking the ratio of phospho-protein to total protein and normalizing to the DMSO control. The results of this study are described in Tables 14-16.

CNS(=O)(=O)Nc1cccc(Cc2c(CN(C)C)c3ccc(OC(=S)N(C)C)cc3oc2=O)c1F [Compound 204] was tested, and the activity at 0.01 µM was 83.4%.

Same assay, conditions: Homo sapiens, A549, 2 h, 10 nM, phospho:total ratio normalized to DMSO control

In order of falling activity at 0.01 µM:
1. CNS(=O)(=O)Nc1cccc(Cc2c(CC(=O)Nc3ccon3)c3ccc(OC(=O)N(C)C)cc3oc2=O)c1F [Compound 201]  119%
2. C#CCNC(=O)CNCc1c(Cc2cccc(NS(=O)(=O)NC)c2F)c(=O)oc2cc(OC(=O)N(C)C)ccc12 [Compound 218]  113%
3. CNS(=O)(=O)Nc1cccc(Cc2c(CC(=O)N3CCN(C)CC3)c3ccc(OC(=O)N(C)C)cc3oc2=O)c1F [Compound 195]  113%
4. CNS(=O)(=O)Nc1cccc(Cc2c(CN(C)C)c3ccc(OC(=O)N4CCN(C)CC4)cc3oc2=O)c1F [Compound 127]  110%
5. CNS(=O)(=O)Nc1cccc(Cc2c(CC(=O)N(C)C)c3ccc(OC(=O)N(C)C)cc3oc2=O)c1F [Compound 196]  106%
6. CNS(=O)(=O)Nc1cccc(Cc2c(CNC(=O)C(C)C)c3ccc(OC(=O)N(C)C)cc3oc2=O)c1F [Compound 208]  105%
7. CNS(=O)(=O)Nc1cccc(Cc2c(CN3CC(N)C3)c3ccc(OC(=O)N(C)C)cc3oc2=O)c1F [Compound 165]  104%
8. CNS(=O)(=O)Nc1cccc(Cc2c(CN3CC(C)(C)C3)c3ccc(OC(=O)N(C)C)cc3oc2=O)c1F [Compound 143]  104%
9. CNS(=O)(=O)Nc1cccc(Cc2c(CNc3ccnn3C)c3ccc(OC(=O)N(C)C)cc3oc2=O)c1F [Compound 96]  102%
10. CNS(=O)(=O)Nc1cccc(Cc2c(CNC(=O)c3nn[nH]n3)c3ccc(OC(=O)N(C)C)cc3oc2=O)c1F [Compound 213]  100%
11. CNS(=O)(=O)Nc1cccc(Cc2c(CN3CC(C(N)=O)C3)c3ccc(OC(=O)N(C)C)cc3oc2=O)c1F [Compound 173]  97.7%
12. CNS(=O)(=O)Nc1cccc(Cc2c(CNCC(=O)N(C)CC#N)c3ccc(OC(=O)N(C)C)cc3oc2=O)c1F [Compound 217]  96.7%
13. CNS(=O)(=O)Nc1cccc(Cc2c(CN3CC(C)C3)c3ccc(OC(=O)N(C)C)cc3oc2=O)c1F [Compound 142]  94.6%
14. CNS(=O)(=O)Nc1cccc(Cc2c(CNCC3CC3)c3ccc(OC(=O)N(C)C)cc3oc2=O)c1F [Compound 26]  94.2%
15. CN(C)C(=O)Oc1ccc2c(CN3CCC3)c(Cc3ccnc(NS(=O)(=O)C4CC4)c3F)c(=O)oc2c1 [Compound 155]  84.9%
16. CNS(=O)(=O)Nc1cccc(Cc2c(CNc3ccn(C)n3)c3ccc(OC(=O)N(C)C)cc3oc2=O)c1F [Compound 89]  83.7%
17. CNS(=O)(=O)Nc1cccc(Cc2c(CN(C)c3cccc(Cl)c3)c3ccc(OC(=O)N(C)C)cc3oc2=O)c1F [Compound 95]  80.2%
18. CNS(=O)(=O)Nc1cccc(Cc2c(CCNCC3CC3)c3ccc(OC(=O)N(C)C)cc3oc2=O)c1F [Compound 186]  80.1%
19. CCS(=O)(=O)Nc1cccc(Cc2c(CN(C)C)c3ccc(OC(=O)N(C)C)cc3oc2=O)c1F [Compound 120]  77.2%
20. CNS(=O)(=O)Nc1cccc(Cc2c(CO)c3ccc(OC(=O)N(C)C)cc3oc2=O)c1F [Compound 180]  75%
21. CNS(=O)(=O)Nc1cccc(Cc2c(CN3CCN(S(C)(=O)=O)CC3)c3ccc(OC(=O)N(C)C)cc3oc2=O)c1F [Compound 68]  68.9%
22. CNS(=O)(=O)Nc1cccc(Cc2c(CNc3ccn[nH]3)c3ccc(OC(=O)N(C)C)cc3oc2=O)c1F [Compound 31]  66.7%
23. CNS(=O)(=O)Nc1cccc(Cc2c(CN3CC(N(C)C)C3)c3ccc(OC(=O)N(C)C)cc3oc2=O)c1F [Compound 154]  64%

Same assay, conditions: Homo sapiens, A549, 2 h, 10 uM, phospho:total ratio normalized to DMSO control

In order of falling activity at 10 µM:
1. CNS(=O)(=O)Nc1cccc(Cc2c(CNC(=O)c3nn[nH]n3)c3ccc(OC(=O)N(C)C)cc3oc2=O)c1F [Compound 213]  70.1%
2. CNS(=O)(=O)Nc1cccc(Cc2c(CNC(=O)C(C)C)c3ccc(OC(=O)N(C)C)cc3oc2=O)c1F [Compound 208]  23.6%
3. CNS(=O)(=O)Nc1cccc(Cc2c(CNCC(=O)N(C)CC#N)c3ccc(OC(=O)N(C)C)cc3oc2=O)c1F [Compound 217]  11.2%
4. C#CCNC(=O)CNCc1c(Cc2cccc(NS(=O)(=O)NC)c2F)c(=O)oc2cc(OC(=O)N(C)C)ccc12 [Compound 218]  9.46%
5. CNS(=O)(=O)Nc1cccc(Cc2c(CNC(N)=O)c3ccc(OC(=O)N(C)C)cc3oc2=O)c1F [Compound 105]  7.39%
6. CNS(=O)(=O)Nc1cccc(Cc2c(CCNCC3CC3)c3ccc(OC(=O)N(C)C)cc3oc2=O)c1F [Compound 186]  0.74%
